Measurements reported in patent publication US12128131B2, “Treatment of epithelial cysts by intracystic injection of antineoplastic particles” (CRITITECH, INC., priority 2017, dated 2024).

Experiment: Solubility in the Receptor Fluid (60/40 methanol/water, pH 4)
Assay type: physicochemical
Conditions: 60 vol. %/40 vol % methanol/water at pH 4 with 0.01 wt % NaN3
Procedure: Receptor Fluid: The receptor fluid consisted of 60 vol. %/40 vol % methanol/water at pH 4 with 0.01 wt % NaN3 (added as a preservative). […] After mixing and degassing the Receptor Fluid it was filtered through a ZapCap CR 0.2 μm membrane under vacuum; the Receptor Fluid, so filtered, was stirred for an additional 20 minutes under vacuum.

- solubility in the Receptor Fluid: sufficient to maintain sink conditions
SMILES: CC(=O)O[C@@]12CO[C@@H]1C[C@H](O)[C@@]1(C)C(=O)[C@H](O)C3=C(C)[C@@H](OC(=O)[C@H](O)[C@@H](NC(=O)OC(C)(C)C)c4ccccc4)C[C@@](O)([C@@H](OC(=O)c4ccccc4)[C@H]21)C3(C)C [Docetaxel Raw Material, docetaxel]
